# According to patent publication US12171755B2, “PAPD5 inhibitors and methods of use thereof” (Children's Medical Center Corporation, priority 2017, dated 2024):
# Biological target: T1, PAPD5 (Homo sapiens, UniProt Q8NDF8)
# T1 construct: made in house
# Experiment: High-throughput luminescence (KinaseGlo) RNA polyadenylation assay, ATP utilization by recombinant PAPD5
# Assay type: biochemical
# Conditions: Table 4 (entries of Table 5), ratio of luminescence with inhibitor to DMSO; for Fold-change determined at compound concentration 33 μM: 33 μM compound; for Fold-change determined at compound concentration 100 μM: 100 μM compound, higher = higher inhibition
# Method: Optimal conditions for an in vitro RNA polyadenylation assay using recombinant PAPD5, ATP and an oligonucleotide substrate were identified. The HTS assay involved ATP utilization by PAPD5, which reads out as a decreased luminescence signal produced by luciferase (KinaseGlo, Promega, Madison, WI).
# 100 nl of compound dissolved in DMSO was transferred to each well of the assay plate via pin transfer. For negative control wells, DMSO alone was added. Plates were gently vortexed for 5 seconds, then incubated for 2 hours at room temperature.
# After 2 hours, 5 ul of luciferase (Promega KinaseGlo, Madison, WI) was added using a MultiDrop Combi (Thermo Fisher Scientific, Waltham, MA). The mixture was gently vortexed for 5 seconds and incubated for 10 minutes at room temperature. Plates were spun for 1 minute prior to luminescence measurements. Luminescent measurements were quantitated using a PerkinElmer EnVision™ plate reader.
# ˜100,000 compounds from various libraries at the ICCB-Longwood were screened in this manner in duplicate.
# The fold change was the ratio of luminescence from a sample with inhibitor compared to that with DMSO. Thus, a higher number indicates higher inhibition.
# T1 sequence (Q8NDF8 68-698 isoform Q8NDF8-5): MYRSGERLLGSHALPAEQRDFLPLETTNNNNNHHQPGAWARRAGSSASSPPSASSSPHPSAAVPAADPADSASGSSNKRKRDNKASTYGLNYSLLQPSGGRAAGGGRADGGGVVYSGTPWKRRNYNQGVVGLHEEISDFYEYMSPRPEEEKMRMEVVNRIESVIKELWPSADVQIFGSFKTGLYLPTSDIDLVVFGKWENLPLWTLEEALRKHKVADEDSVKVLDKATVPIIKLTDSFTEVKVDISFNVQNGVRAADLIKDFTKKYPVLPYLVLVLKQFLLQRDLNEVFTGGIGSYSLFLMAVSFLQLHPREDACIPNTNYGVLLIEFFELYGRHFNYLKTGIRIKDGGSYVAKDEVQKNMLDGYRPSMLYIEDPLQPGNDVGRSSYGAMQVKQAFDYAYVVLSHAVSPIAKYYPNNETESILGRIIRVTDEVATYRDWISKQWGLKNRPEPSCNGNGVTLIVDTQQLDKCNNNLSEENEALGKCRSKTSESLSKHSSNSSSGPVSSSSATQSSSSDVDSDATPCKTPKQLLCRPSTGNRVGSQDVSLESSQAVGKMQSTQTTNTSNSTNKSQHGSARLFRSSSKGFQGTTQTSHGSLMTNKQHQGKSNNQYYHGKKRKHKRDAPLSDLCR
Fold-change determined at compound concentration 33 μM,Fold-change determined at compound concentration 100 μM,Compound
1.076,1.364,"CC(C)Cn1cc(NC(=O)NCc2ccc(Cl)cc2)c2ccccc2c1=O [Entry 58, 1-[(4-chlorophenyl)methyl]-3-[2-(2-methylpropyl)-1-oxoisoquinolin-4-yl]urea]"
1.113,1.69,"CCOc1ccccc1CNC(=O)Nc1cn(CC(C)C)c(=O)c2ccccc12 [Entry 59, 1-[(2-ethoxyphenyl)methyl]-3-[2-(2-methylpropyl)-1-oxoisoquinolin-4-yl]urea]"
1.088,1.621,"COc1cccc(CNC(=O)Nc2cn(CC(C)C)c(=O)c3ccccc23)c1 [Entry 60, 1-[(3-methoxyphenyl)methyl]-3-[2-(2-methylpropyl)-1-oxoisoquinolin-4-yl]urea]"
1.164,1.507,"COc1ccc(CNC(=O)Nc2cn(CC(C)C)c(=O)c3ccccc23)c(OC)c1 [Entry 60a, 1-[(2,4-dimethoxyphenyl)methyl]-3-[2-(2-methylpropyl)-1-oxoisoquinolin-4-yl]urea]"
1.07,1.235,"CCc1cccc(NC(=O)Nc2cn(C)c(=O)c3ccccc23)c1 [Entry 61, 1-(3-ethylphenyl)-3-(2-methyl-1-oxoisoquinolin-4-yl)urea]"
1.298,1.41,"NC1CCN(c2nc3c(cc2F)c(=O)c(C(=O)O)cn3-c2ccc(F)cc2F)C1 (stereo not shown) [Entry 62, 7-(3-aminopyrrolidin-1-yl)-1-(2,4-difluorophenyl)-6-fluoro-4-oxo-1,4-dihydro-1,8-naphthyridine-3-carboxylic acid]"
1.113,1.417,"COc1cccc(CNC2=Nc3ccccc3NC23CCCCC3)c1 [Entry 63, N-[(3-methoxyphenyl)methyl]spiro[4H-quinoxaline-3,1′-cyclohexane]-2-amine]"
1.23,1.394,"O=C(CCCn1c(=O)c2cccn2c2ccc(Br)cc21)N1CCCC1 [Entry 65, 7-bromo-5-(4-oxo-4-pyrrolidin-1-ylbutyl)pyrrolo[1,2-a]quinoxalin-4-one]"
1.083,1.229,"CCCCN(CC)C(=O)CCCn1c(=O)c2cccn2c2ccccc21 [Entry 66, N-butyl-N-ethyl-4-(4-oxopyrrolo[1,2-a]quinoxalin-5-yl)butanamide]"
1.122,1.238,"COc1ccc(NC(=O)CCn2c(=O)c3cccn3c3ccccc32)c(OC)c1 [Entry 67, N-(2,4-dimethoxyphenyl)-3-(4-oxopyrrolo[1,2-a]quinoxalin-5-yl)propanamide]"
1.116,1.223,"CCN(CC)CCNC(=O)c1ccc(Cn2c(=O)c3cccn3c3cccnc32)cc1 [Entry 69, N-(2-(diethylamino)ethyl)-4-((6-oxopyrido[2,3-e]pyrrolo[1,2-a]pyrazin-5(6H)-yl)methyl)benzamide]"
1.103,1.206,"CN(C)CCNC(=O)c1ccc(Cn2c(=O)c3cccn3c3cccnc32)cc1 [Entry 70, N-[2-(dimethylamino)ethyl]-4-[(6-oxopyrido[2,3-e]pyrrolo[1,2-a]pyrazin-5(6H)-yl)methyl]benzamide]"
1.173,1.531,"CCCCn1c(=O)c2sccc2n2c(=S)[nH]nc12 [Entry 71, 4-butyl-1-thioxo-2,4-dihydrothieno[2,3-e][1,2,4]triazolo[4,3-a]pyrimidin-5(1H)-one]"
1.099,1.256,"CCCn1c(=O)c2cc(F)ccc2n2c(=S)[nH]nc12 [Entry 72, 7-fluoro-4-propyl-1-thioxo-2,4-dihydro[1,2,4]triazolo[4,3-a]quinazolin-5(1H)-one]"
1.093,1.278,"CC(C)Cn1c(=O)c2ccccc2n2c(=S)[nH]nc12 [Entry 73, 4-isobutyl-1-thioxo-2,4-dihydro[1,2,4]triazolo[4,3-a]quinazolin-5(1H)-one]"
1.372,1.87,"CC(C)CCn1c(=O)c2ccccc2n2c(=S)[nH]nc12 [Entry 74, 1-mercapto-4-(3-methylbutyl)[1,2,4]triazolo[4,3-a]quinazolin-5(4H)-one]"

Fold-change determined at compound concentration 33 μM,Fold-change determined at compound concentration 100 μM,Compound
1.11,1.324,"O=c1c2sccc2n2c(=S)[nH]nc2n1Cc1ccccc1 [Entry 75, 4-benzyl-1-thioxo-2,4-dihydrothieno[2,3-e][1,2,4]triazolo[4,3-a]pyrimidin-5(1H)-one]"
1.7195,1.423,"CCc1ccc(Cn2c(=O)c3sccc3n3c(=S)[nH]nc23)cc1 [Entry 76, 4-(4-ethylbenzyl)-1-thioxo-2,4-dihydrothieno[2,3-e][1,2,4]triazolo[4,3-a]pyrimidin-5(1H)-one]"
1.142,1.419,"CCn1c(SCC(=O)O)nc2c(=O)n(C)c(=O)n(C)c21 [Entry 77, 2-(9-ethyl-1,3-dimethyl-2,6-dioxopurin-8-yl)sulfanylacetic acid]"
1.05,1.26,"Cn1c(=O)c2nc(SCCC(=O)O)n(Cc3ccc(F)cc3)c2n(C)c1=O [Entry 78, 3-{[9-(4-fluorobenzyl)-1,3-dimethyl-2,6-dioxo-2,3,6,9-tetrahydro-1H-purin-8-yl]sulfanyl}propanoic acid]"
1.164,1.447,"Cn1c(=O)c2nc(SCC(=O)O)n(CCc3ccccc3)c2n(C)c1=O [Entry 79, 2-[1,3-dimethyl-2,6-dioxo-9-(2-phenylethyl)purin-8-yl]sulfanylacetic acid]"
1.164,1.55,"Cn1c(=O)c2nc(SCC(=O)O)n(Cc3ccccc3)c2n(C)c1=O [Entry 80, 2-(9-benzyl-1,3-dimethyl-2,6-dioxopurin-8-yl)sulfanylacetic acid]"
1.107,1.288,Cn1c(=O)c2c(nc(Sc3nnc(NC(=O)c4ccccc4Br)s3)n2C)n(C)c1=O [Entry 81]
1.122,1.306,"Cn1c(=O)c2nc(SCCC(=O)O)n(Cc3ccccc3)c2n(C)c1=O [Entry 82, 3-(9-benzyl-1,3-dimethyl-2,6-dioxopurin-8-yl)sulfanylpropanoic acid]"
1.041,1.203,"O=C(O)c1ccccc1C(=O)Nc1ccc(Br)c2cccnc12 [Entry 83, 2-[(5-bromoquinolin-8-yl)carbamoyl]benzoic acid]"
1.12,1.568,"Cc1ccc(-c2onc3ccc(-c4cc(C(=O)O)c5ccccc5n4)cc23)cc1 [Entry 84, 2-[3-(4-methylphenyl)-2,1-benzoxazol-5-yl]quinoline-4-carboxylic acid]"
1.061,1.252,"Cc1cc(C)c2nc(C)cc(C(=O)O)c2c1 [Entry 85, 2,6,8-trimethylquinoline-4-carboxylic acid]"
1.085,1.233,"Cc1ccc2cccc(NC(=O)c3cccnc3)c2n1 [Entry 86, N-(2-methylquinolin-8-yl)nicotinamide]"
1.097,1.253,"COc1ccc(NC(=O)c2ccc3c(SCC(=O)O)c4c(nc3c2)CCC4)c(OC)c1 [Entry 87, 2-[[6-[(2,4-dimethoxyphenyl)carbamoyl]-2,3-dihydro-1H-cyclopenta[b]quinolin-9-yl]sulfanyl]acetic acid]"
1.082,1.276,"COc1ccc(NC(=O)c2ccc3c(SCC(=O)O)c4c(nc3c2)CCCC4)c(OC)c1 [Entry 88, [(6-{[(2,4-dimethoxyphenyl)amino]carbonyl}-1,2,3,4-tetrahydroacridin-9-yl)thio]acetic acid]"
1.098,1.211,"COCCNC(=O)CSc1c2c(nc3cc(Cl)ccc13)CCCC2 [Entry 89, 2-[(6-chloro-1,2,3,4-tetrahydroacridin-9-yl)sulfanyl]-N-(2-methoxyethyl)acetamide]"
1.105,1.253,"CCCNC(=O)CSc1c2c(nc3ccc(Cl)cc13)CCCC2 [Entry 90, 2-[(7-chloro-1,2,3,4-tetrahydroacridin-9-yl)sulfanyl]-N-propylacetamide]"
